In patent US9266830B2, “Pesticidal arylpyrrolidines” (Bayer Intellectual Property GmbH, priority 2007, dated 2016):

What was measured:
Format in all cases: in vivo
Lucilia cuprina larvae = test: Lucilia cuprina test (larvae in minced horse meat); settings: application rate 100 ppm, larvae, after 2 days
Description: (§1) Solvent: dimethyl sulfoxide
To produce a suitable preparation of active compound, 10 mg of active compound are dissolved in 0.5 ml solvent, and the concentrate is diluted with water to the desired concentration. Approximately 20-30 (Lucilia cuprina larvae) are transferred into a test tube containing 1 cm^3 of minced horse meat and 0.5 ml aqueous dilution of test compound. After 2 days mortality in % is determined 100% means that all the larvae have been killed; 0% means that none of the larvae have been killed.

Boophilus microplus = Boophilus microplus test (injection); settings: application rate 20 μg/animal, adult engorged females, after 7 days
Description: as §1
To produce a suitable preparation of active compound, 10 mg of active compound are dissolved in 0.5 ml solvent, and the concentrate is diluted with solvent to the desired concentration. Five adult engorged female ticks (Boophilus microplus) are injected with compound solution into the abdomen. Ticks are transferred into replica plates and incubated in a climate chamber for a period of time. Egg deposition of fertile eggs is monitored. After 7 days mortality in % is determined 100% means that all eggs are infertile; 0% means that all eggs are fertile.

Amblyomma hebraeum = Amblyomma hebraeum test (AMBYHE), nymph immersion; settings: for activity (mortality in %): application rate 100 ppm, nymphs, after 42 days
Description: as §1
To produce a suitable preparation of active compound, 10 mg of active compound are dissolved in 0.5 ml solvent, and the concentrate is diluted with water to the desired concentration. Nymphs of the tick Amblyomma hebraeum are placed in perforated plastic beakers and immersed in aqueous compound solution for one minute. Ticks are transferred to a filter paper in a Petri dish and incubated in a climate chamber for 42 days.
After 42 days mortality in % is determined 100% means that all the ticks have been killed; 0% means that none of the ticks have been killed.

SMILES | activity (100% means that all eggs are infertile) (Boophilus microplus) | other results
CN(Cc1ccc(N2CCC(c3cc(Cl)cc(Cl)c3)(C(F)(F)F)C2)cc1Cl)C(=O)C1CC1 (stereo not shown) [1-74] | 100% | activity (mortality in %) (Lucilia cuprina larvae): 90%
CCCNC(=O)NCc1ccc(N2CCC(c3cc(Cl)cc(Cl)c3)(C(F)(F)F)C2)cc1Cl (stereo not shown) [1-79] | 100% | activity (mortality in %) (Lucilia cuprina larvae): 90%
C=CCNC(=O)NCc1ccc(N2CCC(c3cc(Cl)cc(Cl)c3)(C(F)(F)F)C2)cc1Cl (stereo not shown) [1-87] | 100% | activity (mortality in %) (Lucilia cuprina larvae): 80%
COCCNC(=O)NCc1ccc(N2CCC(c3cc(Cl)cc(Cl)c3)(C(F)(F)F)C2)cc1Cl (stereo not shown) [1-97] | 100% | activity (mortality in %) (Lucilia cuprina larvae): 90%
CN(C)C(=O)NCc1ccc(N2CCC(c3cc(Cl)cc(Cl)c3)(C(F)(F)F)C2)cc1Cl (stereo not shown) [1-118] | 100% | activity (mortality in %) (Amblyomma hebraeum): 90%
C=CCNC(=O)NCc1ccc(N2CCC(c3cc(Cl)cc(Cl)c3)(C(F)(F)F)C2)cc1C(F)(F)F (stereo not shown) [1-230] | 100% | activity (mortality in %) (Amblyomma hebraeum): 80%
COCCNC(=O)NCc1ccc(N2CCC(c3cc(Cl)cc(Cl)c3)(C(F)(F)F)C2)cc1C(F)(F)F (stereo not shown) [1-243] | 100% | activity (mortality in %) (Lucilia cuprina larvae): 95%
CSCCNC(=O)NCc1ccc(N2CCC(c3cc(Cl)cc(Cl)c3)(C(F)(F)F)C2)cc1C(F)(F)F (stereo not shown) [1-244] | 100% | activity (mortality in %) (Lucilia cuprina larvae): 80%
O=C(NCc1ccc(N2CCC(c3cc(Cl)cc(Cl)c3)(C(F)(F)F)C2)cc1C(F)(F)F)N1CCOCC1 (stereo not shown) [1-257] | 100% | activity (mortality in %) (Lucilia cuprina larvae): 95%
O=C(CCCl)NCc1ccc(N2CCC(c3cc(C(F)(F)F)cc(C(F)(F)F)c3)(C(F)(F)F)C2)cc1C(F)(F)F (stereo not shown) [1-297] | 100% | activity (mortality in %) (Amblyomma hebraeum): 90%
NCc1ccc(N2CCC(c3cc(C(F)(F)F)cc(C(F)(F)F)c3)(C(F)(F)F)C2)cc1Cl (stereo not shown) [1-306] |  | activity (mortality in %) (Lucilia cuprina larvae): 90%
CCC(=O)NCc1ccc(N2CCC(c3cc(C(F)(F)F)cc(C(F)(F)F)c3)(C(F)(F)F)C2)cc1Cl (stereo not shown) [1-307] | 100% | activity (mortality in %) (Amblyomma hebraeum): 80%
O=C(NCc1ccc(N2CCC(c3cc(C(F)(F)F)cc(C(F)(F)F)c3)(C(F)(F)F)C2)cc1Br)C1CC1 (stereo not shown) [1-313] | 100% | activity (mortality in %) (Amblyomma hebraeum): 95%
O=S(=O)(CC(F)(F)F)NCc1ccc(N2CCC(c3cc(Cl)c(Cl)c(Cl)c3)(C(F)(F)F)C2)cc1C(F)(F)F (stereo not shown) [1-334] | 100% | activity (mortality in %) (Lucilia cuprina larvae): 90%
NCc1ccc(N2CCC(c3cc(Cl)c(Cl)c(Cl)c3)(C(F)(F)F)C2)cc1Cl (stereo not shown) [1-336] | 100% | activity (mortality in %) (Lucilia cuprina larvae): 90%
O=C(CC(F)(F)F)NCc1ccc(N2CCC(c3cc(Cl)c(Cl)c(Cl)c3)(C(F)(F)F)C2)cc1Cl (stereo not shown) [1-340] | 100% | activity (mortality in %) (Amblyomma hebraeum): 80%
O=C(CC(F)(F)F)NCc1ccc(N2CCC(c3cc(Cl)c(Cl)c(Cl)c3)(C(F)(F)F)C2)cc1Br (stereo not shown) [1-347] | 100% | activity (mortality in %) (Amblyomma hebraeum): 90%
O=C(CC(F)(F)F)NCc1ccc(N2CCC(c3cc(C(F)(F)F)cc(C(F)(F)F)c3)(C(F)(F)F)C2)nc1C(F)(F)F (stereo not shown) [1-404] | 100% | activity (mortality in %) (Amblyomma hebraeum): 85%
CSCCC(=O)NCc1ccc(N2CCC(c3cc(Cl)cc(Cl)c3)(C(F)(F)F)C2)cc1C(F)(F)F (stereo not shown) [1-509] | 100% | activity (mortality in %) (Amblyomma hebraeum): 90%
CC(C)(C)OC(=O)NCc1ccc(N2CCC(c3cc(Cl)c(Cl)c(Cl)c3)(C(F)(F)F)C2)cc1Cl (stereo not shown) [1-694] | 100% | activity (mortality in %) (Lucilia cuprina larvae): 80%
C=CCS(=O)(=O)CC(=O)NCc1ccc(N2CCC(c3cc(Cl)c(Cl)c(Cl)c3)(C(F)(F)F)C2)cc1C(F)(F)F (stereo not shown) [1-734] | 100% | activity (mortality in %) (Amblyomma hebraeum): 90%
C=CCS(=O)(=O)CC(=O)NCc1ccc(N2CCC(c3cc(C(F)(F)F)cc(C(F)(F)F)c3)(C(F)(F)F)C2)cc1C(F)(F)F (stereo not shown) [1-971] | 100% | 
O=C(NCC(F)(F)F)c1cnc(N2CCC(c3cc(C(F)(F)F)cc(C(F)(F)F)c3)(C(F)(F)F)C2)nc1C(F)(F)F (stereo not shown) [2-34] | 100% | 

SMILES | activity (100% means that all eggs are infertile) (Boophilus microplus) | other results
O=C(NCc1ccccn1)c1cnc(N2CCC(c3cc(C(F)(F)F)cc(C(F)(F)F)c3)(C(F)(F)F)C2)nc1C(F)(F)F (stereo not shown) [2-35] | 100% | 
CCC(=O)NCc1ccc(N2CCC(c3cc(Cl)cc(Cl)c3)(C(F)(F)F)C2)cc1Br (stereo not shown) [3-5 according to WO2008/128711, reference compound] |  | Activity at 0.8 ppm (Amblyomma hebraeum; 0.8 ppm, comparison with WO2008/128711): 10%; Activity at 4 ppm (Amblyomma hebraeum; 4 ppm, comparison with WO2008/128711): 70%
CC(=O)NCc1cnc(N2CCC(c3cc(Cl)c(Cl)c(Cl)c3)(C(F)(F)F)C2)nc1C(F)(F)F (stereo not shown) [3-141] | 100% | 
O=C(NCc1cnc(N2CCC(c3cc(Cl)c(Cl)c(Cl)c3)(C(F)(F)F)C2)nc1C(F)(F)F)C1CC1 (stereo not shown) [3-143] | 100% | 
O=C(CC(F)(F)F)NCc1cnc(N2CCC(c3cc(Cl)c(Cl)c(Cl)c3)(C(F)(F)F)C2)nc1C(F)(F)F (stereo not shown) [3-144] | 100% | 
CCNC(=O)NCc1cnc(N2CCC(c3cc(Cl)c(Cl)c(Cl)c3)(C(F)(F)F)C2)nc1C(F)(F)F (stereo not shown) [3-145] | 100% | 
NCc1cnc(N2CCC(c3cc(C(F)(F)F)cc(C(F)(F)F)c3)(C(F)(F)F)C2)nc1C(F)(F)F (stereo not shown) [3-146] | 100% | 
CCC(=O)NCc1cnc(N2CCC(c3cc(C(F)(F)F)cc(C(F)(F)F)c3)(C(F)(F)F)C2)nc1C(F)(F)F (stereo not shown) [3-148] | 100% | 
O=C(NCc1cnc(N2CCC(c3cc(C(F)(F)F)cc(C(F)(F)F)c3)(C(F)(F)F)C2)nc1C(F)(F)F)C1CC1 (stereo not shown) [3-149] | 100% | 
O=C(CC(F)(F)F)NCc1cnc(N2CCC(c3cc(C(F)(F)F)cc(C(F)(F)F)c3)(C(F)(F)F)C2)nc1C(F)(F)F (stereo not shown) [3-150] | 100% | 
CCNC(=O)NCc1cnc(N2CCC(c3cc(C(F)(F)F)cc(C(F)(F)F)c3)(C(F)(F)F)C2)nc1C(F)(F)F (stereo not shown) [3-151] | 100% | 
O=C(NCC(F)(F)F)c1sc(N2CCC(c3cc(Cl)cc(Cl)c3)(C(F)(F)F)C2)nc1C(F)(F)F (stereo not shown) [4-8] | 100% | 
O=C(NCc1ccccn1)c1sc(N2CCC(c3cc(Cl)cc(Cl)c3)(C(F)(F)F)C2)nc1C(F)(F)F (stereo not shown) [4-9] |  | activity (mortality in %) (Lucilia cuprina larvae): 80%
O=C(NCc1ccccn1)c1sc(N2CCC(c3cc(Cl)c(Cl)c(Cl)c3)(C(F)(F)F)C2)nc1C(F)(F)F (stereo not shown) [4-22] | 100% | 
O=C(NCC(F)(F)F)c1sc(N2CCC(c3cc(C(F)(F)F)cc(C(F)(F)F)c3)(C(F)(F)F)C2)nc1C(F)(F)F (stereo not shown) [4-34] | 100% | 
O=C(NCc1ccccn1)c1sc(N2CCC(c3cc(C(F)(F)F)cc(C(F)(F)F)c3)(C(F)(F)F)C2)nc1C(F)(F)F (stereo not shown) [4-35] | 100% | 
O=C(NCc1sc(N2CCC(c3cc(Cl)c(Cl)c(Cl)c3)(C(F)(F)F)C2)nc1C(F)(F)F)C1CC1 (stereo not shown) [5-143] | 100% | 
O=C(CC(F)(F)F)NCc1sc(N2CCC(c3cc(Cl)c(Cl)c(Cl)c3)(C(F)(F)F)C2)nc1C(F)(F)F (stereo not shown) [5-144] | 100% | 
CCC(=O)NC1CCc2cc(N3CCC(c4cc(Cl)cc(Cl)c4)(C(F)(F)F)C3)ccc21 (stereo not shown) [6-4] | 100% | 
CC(=O)NC1CCc2cc(N3CCC(c4cc(Cl)c(Cl)c(Cl)c4)(C(F)(F)F)C3)ccc21 (stereo not shown) [6-267] | 100% | 
CC(C)(C)OC(=O)NC1CCc2cc(N3CCC(c4cc(Cl)c(Cl)c(Cl)c4)(C(F)(F)F)C3)ccc21 (stereo not shown) [6-802] | 100% | 
N#Cc1ccc(N2CCC(c3cc(Cl)c(Cl)c(Cl)c3)(C(F)(F)F)C2)cc1C(F)(F)F (stereo not shown) [7-12] | 100% | 
N#Cc1ccc(N2CCC(c3cc(Cl)c(Cl)c(Cl)c3)(C(F)(F)F)C2)cc1Cl (stereo not shown) [7-13] | 100% | 
